This passage reports melting point results from patent publication US20040181075A1, “Process of making chalcone derivatives” (priority 2002, published 2004).

What is called melting point is the temperature of the solid-liquid transition. Turning to `COc1cc(OC)c(-c2cc3ccccc3s2)cc1/C=C\C(=O)c1ccc(C(=O)O)cc1` [Example 66, 4-[(2Z)-3-(5-benzo[b]thien-2-yl-2,4-dimethoxyphenyl)-1-oxo-2-propenyl]-benzoic acid], the melting point lay in the range of 176 to 178 °C.
Consider `COc1cc(OC)c(-c2cc3ccccc3s2)cc1/C=C/C(=O)c1ccc(C(=O)O)cc1` [Example 3, 4-[(2E)-3-(5-benzo[b]thien-2-yl-2,4-dimethoxyphenyl)-1-oxo-2-propenyl]-benzoic acid], for which the melting point was 231 to 232 °C (dec.).
